# Test results reported in ChEMBL document CHEMBL1133384, “Synthesis and study of a new adenine-acridine tandem, inhibitor of exonuclease III” (Bioorg Med Chem Lett, 2000).
# Legend:
# L1210 = test: The cytotoxicity against murine leukemia L1210; type: functional, cell-based; details: Mus musculus
# Nucleic Acid = test: Compound was evaluated for its binding affinity constant for native calf thymus DNA in competition experiment with ethium bromide; type: nucleic-acid assay, Bos taurus
compound,measurement,setting,value
COc1ccc2nc3cc(Cl)ccc3c(NCCCN(CCC(=O)NCCn3cnc4c(N)ncnc43)C(=N)N)c2c1.Cl,IC50,L1210,> 100 µM
same,Ka,Nucleic Acid,200000 M⁻¹
